Data on 12 molecules can be found in patent publication US20220125051A1, “PRE-HARVEST DESICCATION METHOD” (SYNGENTA CROP PROTECTION AG, priority 2019, published 2022).

What all share (experiment): Post-emergence efficacy, Method A
Common to all, as to type: in vivo

The subject of assay [1] is Amaranthus palmeri (AMAPA). The following applies: Amaranthus palmeri, post-emergence, 312 h, evaluated after 13 days, Method A, read-out: Control of weed species after post-emergence application, AMAPA (100=total damage to plant; 0=no damage to plant); for pest or weed control at 500 g/ha: Application Rate 500 g/Ha. The method in brief: (§1)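 Plants raised 14 days from seed in standard soil in a glasshouse (24/16 °C day/night, 14 h light, 65% humidity) were sprayed with compound dissolved in acetone plus IF50 solvent/emulsifier (50 g/l solution), diluted with 0.25% or 1% Empicol ESC70 + 1% ammonium sulphate. Damage was scored visually after 13 days (0 = none, 100 = total).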

Assay [2] deals with Chenopodium album (CHEAL). The following applies: Chenopodium album, post-emergence, 312 h, evaluated after 13 days, Method A, read-out: Control of weed species after post-emergence application, CHEAL (100=total damage to plant; 0=no damage to plant); for pest or weed control at 500 g/ha: Application Rate 500 g/Ha. The gist of the method:
as §1

In assay [3] the test system is Digitaria sanguinalis (DIGSA). The following applies: Digitaria sanguinalis, post-emergence, 312 h, evaluated after 13 days, Method A, read-out: Control of weed species after post-emergence application, DIGSA (100=total damage to plant; 0=no damage to plant); for pest or weed control at 500 g/ha: Application Rate 500 g/Ha. The gist of the method:
as §1

For assay [4], the system named is Echinochloa crus-galli (ECHCG). The following applies: Echinochloa crus-galli, post-emergence, 312 h, evaluated after 13 days, Method A, read-out: Control of weed species after post-emergence application, ECHCG (100=total damage to plant; 0=no damage to plant); for pest or weed control at 500 g/ha: Application Rate 500 g/Ha. The gist of the method: as §1
The test system of a further assay is Eleusine indica (ELEIN). The following applies: Eleusine indica, post-emergence, 312 h, evaluated after 13 days, Method A, read-out: Control of weed species after post-emergence application, ELEIN (100=total damage to plant; 0=no damage to plant); for pest or weed control at 500 g/ha: Application Rate 500 g/Ha. The method in brief: as §1
Assay [5] deals with Euphorbia heterophylla (EPHHL). The following applies: Euphorbia heterophylla, post-emergence, 312 h, evaluated after 13 days, Method A, read-out: Control of weed species after post-emergence application, EPHHL (100=total damage to plant; 0=no damage to plant); for pest or weed control at 500 g/ha: Application Rate 500 g/Ha. The gist of the method: as §1
For assay [6], the system named is Ipomoea hederacea (IPOHE). The following applies: Ipomoea hederacea, post-emergence, 312 h, evaluated after 13 days, Method A, read-out: Control of weed species after post-emergence application, IPOHE (100=total damage to plant; 0=no damage to plant); for pest or weed control at 500 g/ha: Application Rate 500 g/Ha. The method in brief: as §1
The subject of the next assay is Lolium perenne (LOLPE). The following applies: Lolium perenne, post-emergence, 312 h, evaluated after 13 days, Method A, read-out: Control of weed species after post-emergence application, LOLPE (100=total damage to plant; 0=no damage to plant); for pest or weed control at 500 g/ha: Application Rate 500 g/Ha. The gist of the method:
as §1

A further assay deals with Setaria faberi (SETFA). The following applies: Setaria faberi, post-emergence, 312 h, evaluated after 13 days, Method A, read-out: Control of weed species after post-emergence application, SETFA (100=total damage to plant; 0=no damage to plant); for pest or weed control at 500 g/ha: Application Rate 500 g/Ha. The gist of the method:
as §1

Turning to `O=S(=O)([O-])CCC[n+]1ccc(-c2nccc(CO)n2)cn1` [Compound A154], the pest or weed control at 125 g/ha turned out to be 40% in assay [1] (Application Rate 125 g/Ha); 50% in [2] (Application Rate 125 g/Ha); 20% in assay [3] (Application Rate 125 g/Ha); 20% in assay [4] (Application Rate 125 g/Ha); 10% with Eleusine indica (ELEIN) (Application Rate 125 g/Ha); 70% in [5] (Application Rate 125 g/Ha). Further, the pest or weed control at 125 g/ha in [6] (Application Rate 125 g/Ha) is 20%; in the assay on Lolium perenne (LOLPE) (Application Rate 125 g/Ha), 10%; in the assay on Setaria faberi (SETFA) (Application Rate 125 g/Ha) it was 30%.
Regarding `Cc1ccc(-c2cc[n+](CCS(=O)(=O)[O-])nc2)nc1` [Compound A155], the pest or weed control at 500 g/ha in assay [1] was 20%; in [2], 10%; in assay [3] it was 50%; in assay [4], 40%; in the assay with Eleusine indica (ELEIN), 30%; in [5] it was 30%. Besides, the figures for the pest or weed control at 500 g/ha (in [6]; in the assay with Lolium perenne (LOLPE); in the assay on Setaria faberi (SETFA)) were 20%, 50% and 40%, respectively.
Consider `Cc1cc(Cl)cnc1-c1cc[n+](CCC(=O)O)nc1` [Compound A156], for which the pest or weed control at 500 g/ha in assay [1] amounted to 30%; in assay [2], 50%; in assay [3] it was 20%; in [4], 10%; in the assay on Eleusine indica (ELEIN), 20%; in [5] it was 50%. Besides, the pest or weed control at 500 g/ha worked out at 10% in [6], 0% in the assay with Lolium perenne (LOLPE) and 20% in the assay on Setaria faberi (SETFA).
Regarding `O=C(O)CC[n+]1ccc(-c2ccncc2F)cn1` [Compound A157], the pest or weed control at 500 g/ha was 100% in assay [1]; 100% in assay [2]; 70% in assay [3]; 80% in assay [4]; 90% with Eleusine indica (ELEIN); 80% in assay [5]. Also, the values for the pest or weed control at 500 g/ha (in assay [6]; with Lolium perenne (LOLPE); in the assay on Setaria faberi (SETFA)) were 60%, 30% and 80%, respectively.
For the molecule `Nc1nccc(-c2cc[n+](CCS(=O)(=O)[O-])nc2)n1` [Compound A158], the pest or weed control at 500 g/ha in [1] came to 100%; in [2] it was 80%; in [3], 30%; in [4], 20%; with Eleusine indica (ELEIN), 50%; in [5], 80%. Also, the figures for the pest or weed control at 500 g/ha (in assay [6]; with Lolium perenne (LOLPE); with Setaria faberi (SETFA)) were 30%, 30% and 40%, respectively.
With `O=S(=O)(O)CC[n+]1ccc(-c2ccncc2F)cn1` [Compound A159], the pest or weed control at 500 g/ha in [1] was 100%; in assay [2], 100%; in assay [3] it was 30%; in assay [4] it was 70%; in the assay with Eleusine indica (ELEIN), 50%; in [5] it was 80%. Moreover, the values for the pest or weed control at 500 g/ha (in assay [6]; in the assay with Lolium perenne (LOLPE); in the assay with Setaria faberi (SETFA)) were 50%, 40% and 60%, respectively.
For the molecule `Nc1nccc(-c2cc[n+](CCC(=O)O)nc2)n1` [Compound A160], the pest or weed control at 500 g/ha in [1] was determined as 100%; in [2], 100%; in [3] it was 70%; in assay [4], 70%; in the assay with Eleusine indica (ELEIN), 80%; in [5], 90%. In addition, the pest or weed control at 500 g/ha amounted to 70% in assay [6], 70% with Lolium perenne (LOLPE) and 90% in the assay with Setaria faberi (SETFA).
Regarding `O=C(O)CC[n+]1ccc(-c2ncc(Cl)c(=O)[nH]2)cn1` [Compound A161, 3-[4-(5-chloro-6-oxo-1H-pyrimidin-2-yl)pyridazin-1-ium-1-yl]propanoic acid 2,2,2-trifluoroacetate], the pest or weed control at 500 g/ha in assay [1] was determined as 30%; in assay [2], 70%; in [3], 20%; in [4], 20%; in the assay with Eleusine indica (ELEIN), 20%; in assay [5] it was 50%. Further, the pest or weed control at 500 g/ha came to 20% in [6], 10% with Lolium perenne (LOLPE) and 10% in the assay on Setaria faberi (SETFA).
On to `O=C(O)CC[n+]1ccc(-c2ncc(CO)cn2)cn1` [Compound A162], for which the pest or weed control at 500 g/ha in [1] was found to be 100%; in assay [2], 70%; in assay [3], 70%; in assay [4], 90%; in the assay on Eleusine indica (ELEIN) it was 80%; in assay [5] it was 80%. The pest or weed control at 500 g/ha was found to be 10% in [6], 90% with Lolium perenne (LOLPE) and 70% in the assay with Setaria faberi (SETFA).
Regarding `Nc1cc(-c2cc[n+](CCS(=O)(=O)[O-])nc2)ncn1` [Compound A164], the pest or weed control at 500 g/ha in assay [1] was determined as 100%; in [2], 80%; in assay [3], 30%; in assay [4], 30%; in the assay with Eleusine indica (ELEIN), 80%; in assay [5], 90%. Moreover, the pest or weed control at 500 g/ha worked out at 40% in [6], 40% in the assay with Lolium perenne (LOLPE) and 50% in the assay with Setaria faberi (SETFA).
Take `O=S(=O)([O-])CC[n+]1ccc(-c2ccnc(C(F)(F)F)c2)cn1` [Compound A165]: the pest or weed control at 500 g/ha in [1] stood at 100%; in assay [2], 50%; in assay [3] it was 60%; in assay [4], 70%; in the assay with Eleusine indica (ELEIN), 70%; in [5], 50%. In addition, the pest or weed control at 500 g/ha in assay [6] is 40%; in the assay with Lolium perenne (LOLPE) it was 60%; in the assay with Setaria faberi (SETFA), 60%.
For the molecule `O=C(O)CC[n+]1ccc(-c2ccnc(C(F)(F)F)c2)cn1` [Compound A166], the pest or weed control at 500 g/ha in assay [1] stood at 30%; in assay [2], 50%; in assay [3] it was 70%; in assay [4], 50%; in the assay on Eleusine indica (ELEIN), 60%; in assay [5], 60%. For the same molecule, the pest or weed control at 500 g/ha is 60% in [6], 70% in the assay with Lolium perenne (LOLPE) and 40% in the assay on Setaria faberi (SETFA).
